In patent publication US6743618B2, “Thermostable proteolytic enzymes and uses thereof in peptide and protein synthesis” (University of Florida Research Foundation, Inc., priority 1996, dated 2004):
Non-standard residues stand in square brackets, D forms with d. Residues, ends and D or L forms follow the SMILES beside them. *: point of attachment. pNA = O=[N+]([O-])c1ccc(N*)cc1; Cbz = O=C(OCc1ccccc1)*; Bz = O=C(c1ccccc1)*

Assays:
trypsin = assay: BAPNA hydrolysis by trypsin (comparison); format: biochemical; details: BAPNA as substrate, same conditions (25.0 °C)
P. furiosus protease [1] = molecular target: T1, P. furiosus protease (Pyrococcus furiosus, UniProt Q8U3Y3); assay: Activation enthalpy and entropy from Arrhenius plots of initial velocities; format: biochemical
T1 sequence (Q8U3Y3 entry or part of it): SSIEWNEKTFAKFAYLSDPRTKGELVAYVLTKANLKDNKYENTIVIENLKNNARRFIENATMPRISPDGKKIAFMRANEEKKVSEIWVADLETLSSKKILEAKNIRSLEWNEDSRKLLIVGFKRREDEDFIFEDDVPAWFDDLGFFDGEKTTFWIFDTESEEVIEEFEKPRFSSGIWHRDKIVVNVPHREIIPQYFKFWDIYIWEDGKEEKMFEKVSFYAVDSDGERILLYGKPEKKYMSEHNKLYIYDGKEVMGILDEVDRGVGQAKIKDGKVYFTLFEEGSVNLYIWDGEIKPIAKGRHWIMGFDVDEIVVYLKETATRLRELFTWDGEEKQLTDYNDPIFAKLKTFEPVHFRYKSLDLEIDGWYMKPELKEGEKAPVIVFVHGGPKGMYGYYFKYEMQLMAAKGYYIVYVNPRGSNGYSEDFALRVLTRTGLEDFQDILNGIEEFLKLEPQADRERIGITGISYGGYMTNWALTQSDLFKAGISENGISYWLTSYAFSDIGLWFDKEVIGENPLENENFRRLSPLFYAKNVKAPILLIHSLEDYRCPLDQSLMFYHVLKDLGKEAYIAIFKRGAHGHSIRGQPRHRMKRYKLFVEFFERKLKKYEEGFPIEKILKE
Description: For all kinetic experiments at high temperatures, sodium phosphate (0.025 M) was used as a buffer.
To explore the basis for the extremely large increases in enzyme activity with temperature, initial velocity (vo) measurements were made at 6 different substrate concentrations in order to determine kcat and Km at a series of temperatures in the range of 25.0 to 83.5° C. Temperature was controlled to within ±0.5° C. with a large water bath and jacketed cuvettes. Two substrates were used for these experiments—BAPNA and D-pro-phe-arg-pNA(PPANA).
Within the temperature range accessible to mesophilic enzymes, such plots are linear. […] The data was fitted to a second degree polynomial and the slopes determined as a function of temperature to compute Arrhenius activation energies. These values were used to compute activation enthalpy (ΔH*) and entrophy (ΔS*) as a function of temperature (Eyring, H. (1963) Modern Chemical Kinetics, Rheinhold, N.Y.).

P. furiosus protease [2] = molecular target: T1, P. furiosus protease; assay: Hydrolysis kinetics of synthetic peptide and ester substrates (progress curve / initial velocity analysis); format: biochemical; details: for Ki: read-out: Ki (product inhibition constant)
Source text: (§1) The hydrolysis kinetics of various synthetic peptide and ester protease substrates were studied. Two different methods have been used to analyze the kinetic properties of the enzyme. The first utilized initial velocity data at several substrate concentrations with analysis by plotting s/v νs s (Hanes plot). This method was always used when it was possible that the protease could cleave at more than one site (e.g., PPANA). The second method utilizes all data of the progress curve of the reaction. Progess curves were analyzed in two ways:
(§2) Instantaneous point by point derivatives were calculated from the absorbance νs time data by fitting 10 points spaced 1 second apart by least squares to a second degree polynomial. Derivatives were computed analytically and were used to construct plots of v νs s, which were then analyzed by non-linear regression to obtain Km, kcat and any product inhibition constant (Ki) if it exists. […] For all measurements at elevated temperature, the first-order rate constants for non-enzymic hydrolysis were determined for all substrates. The analytic method described here was used both for reactions at 25.0° C. and 80.0° C.
(§3) For these analyses, the integrated Michaelis-Menten equation was used, but not in linearized form, for reasons relating to product inhibition. Plots of time (now the dependent variable) νs absorbance were constructed from the raw data and analyzed by non-linear regression. […] This method was used for analyses at 25.0° C. only.
(§4) All kinetic studies utilized a Cary 3E double beam spectrophotometer and absorbance νs time data were collected by computer at 1 second intervals. In cases where a peptide substrate could potentially be cleaved at more than one site, thin-layer chromatography was used to establish the products formed (silica gel; butanol:acetone:NH4OH:water—37:37:19:7).
(§5) All of the above are mean values from at least 4 separate experiments. Except for PPANA, values are means of v νs s and integrated rate equation analyses. PPANA values were obtained from initial velocity measurements, analyzed by the Hanes equation. Solvent: 0.025 M Na Phosphate, pH 7.0. […] N. D. means not determined.

[3] = tested on: Pyrococcus furiosus serine protease, native, about 81 kDa, N-terminus SEQ ID NO: 1; assay: Active site inhibitor studies (BAPNA as substrate); format: biochemical; details: 10^−3 M, incubation for 24 hr
Description: (§6) To assign the class of protease to which the P. furiosus protease belongs, several reagents were used to identify catalytically important residues.
a. Incubation of the enzyme with 10^−3 M EDTA for 24 hr had no effect upon enzyme activity.
b. One of the active-site inhibitors of mesophilic serine proteases is phe-pro-argCH2Cl. This reagent reacts rapidly and specifically with the active site histidine residue of the active site triad: ser-his-asp (Shaw, E. “Site-Specific Reagents for Chymotrypsin and Trypsin.” […]. 11:677-686, 1967).

P. furiosus protease [4] = molecular target: T1, P. furiosus protease; assay: Active site inhibitor studies, BAPNA as substrate; format: biochemical
Source text: as §6
b. […] This reagent reacts rapidly and specifically with the active site histidine residue of the active site triad: ser-his-asp (Shaw, E. “Site-Specific Reagents for Chymotrypsin and Trypsin.” […]. 11:677-686, 1967).

[5] = tested on: Pyrococcus furiosus serine protease (carboxypeptidase/endopeptidase), native, about 81 kDa, N-terminus SEQ ID NO: 1; assay: Kinetic studies and substrate specificity (hydrolysis of synthetic peptide and ester substrates; progress curves, Hanes plot); format: biochemical; details: for Km / kcat: 0.025 M Na phosphate, pH 7.0, mean of at least 4 experiments (PPANA: initial velocities, Hanes equation); for product inhibition, Ki compared with Km / hydrolysis by the protease: in words; for hydrolysis by the protease: at up to 80° C. for arg-pNA (TLC), Table 3 lists HA and ZGP at 25.0° C.
Source text: as §1, §2
b. Integrated Rate Equation Analyses: t νs Absorbance
as §3
Subroutines for the above analyses were written to analyze the kinetic data for: product competitive inhibition, non-competitive inhibition, 2-product inhibition, and simple Michaelis-Menten kinetics. An HP 9000 series work station was used for this purpose, using HP BASIC.
as §4, §5

[6] = pK values used to calculate theoretical yield; format: physicochemical; details: for pK1: carboxyl reactant; for pK2: amine nucleophile
Description: Yield is defined as the ratio of product concentration to the initial concentration of the carboxyl reactant (in percent). Theoretical yield was calculated from equations 1, 2 and 3 together with pK1=3.81 (ZGL) and 4.47 (ZGE); pK2=7.93 (leu-NH2) and 7.51 (arg-NH2).

P. furiosus protease [7] = molecular target: T1, P. furiosus protease; assay: Product inhibition: initial rate measurements of BAPNA with varying product concentrations; format: biochemical
[8] = tested on: serine protease of the subject invention; assay: Digestion of insulin B-chain, products by TLC; format: biochemical, Pyrococcus furiosus; details: 80° C., phosphate buffer, pH 7.0, 1 hour
Description: Treatment of the insulin B-chain with the serine protease of the subject invention (80° C., phosphate buffer, pH 7.0) for 1 hour yields 5 ninhydrin-positive components by TLC. No non-enzyme hydrolysis of substrate was detected after this time period. One of the new components is alanine which the carboxy terminus of the B-chain. None of the others is a free amino acid. These studies with insulin provide further evidence that the enzyme is an endopeptidase.

[9] = 25.0 °C, 0.025 M Na phosphate, pH 7.0, total progress curve analyses
[10] = 25.0 °C, BAPNA substrate, sodium phosphate 0.025 M pH 7.0, iodoacetamide 100-fold molar excess

## N=C(N)NCCC[C@H](NC(=O)c1ccccc1)C(=O)Nc1ccc([N+](=O)[O-])cc1 [BAPNA, N-benzoyl-L-arginine-p-nitroanilide]
trypsin
  kcat: 2.7 s⁻¹
P. furiosus protease [1]; 25.0 °C
  ΔH* (activation enthalpy): 17.2 kcal/mol
  ΔS* (activation entropy): 2.2 e.u
P. furiosus protease [1]; 80.0 °C
  ΔH* (activation enthalpy): 3.1 kcal/mol
  ΔS* (activation entropy): −41.7 e.u
P. furiosus protease [2]; 25.0 °C
  Ki compared with Km: Ki<Km
P. furiosus protease [2]; 25.0 °C, Table 3
  Ki times less than Km: 10
P. furiosus protease [2]; [9]
  Ki: 70.8 µM
P. furiosus protease [2]; 80 °C vs 25 °C
  kcat at 80° C. relative to 25° C. (times greater): 65
P. furiosus protease [2]; 80.0 °C, 0.025 M Na phosphate, pH 7.0, progress curve analysis
  Ki: 220 µM

## CCOC(=O)[C@H](Cc1ccc(O)cc1)NC(=O)c1ccccc1 [BTEE, benzoyl-tyrosine ethyl ester]
P. furiosus protease [2]; [9]
  Ki: 5600 µM

## O=C(O)CN(CCN(CC(=O)O)CC(=O)O)CC(=O)O [EDTA]
[3]
  effect upon enzyme activity: no effect
P. furiosus protease [4]
  effect upon enzyme activity: no effect

## C[C@H](NC(=O)/C=C/c1ccco1)C(=O)N[C@@H](Cc1ccccc1)C(N)=O [FAAPA, furyl-acryloyl-ala-phe-amide]
[5]; 25.0° C.
  Km: 38.6 µM
  kcat: 7.31 s⁻¹
[5]
  product inhibition, Ki compared with Km: Ki<Km

## CC(C)C[C@H](NC(=O)CNC(=O)/C=C/c1ccco1)C(N)=O [FAGLA, furyl-acryloyl-glycyl-leucine amide]
P. furiosus protease [2]; 25.0 °C
  Ki compared with Km: Ki<Km
  product inhibition: intense product inhibition
P. furiosus protease [2]; 25.0 °C, 0.025 M Na phosphate, pH 7.0, PPANA from initial velocities (Hanes)
  Km: 6.08 µM
P. furiosus protease [2]; 25.0 °C, 0.025 M Na phosphate, pH 7.0, means of at least 4 experiments, PPANA from initial velocities (Hanes)
  kcat: 0.67 s⁻¹

## O=C(O)CNC(=O)CNC(=O)[C@H](Cc1ccccc1)NC(=O)/C=C/c1ccco1 [FAPGG, furyl-acryloyl-phe-gly-gly]
[5]; 25.0° C.
  Km: 415 µM
  kcat: 10.64 s⁻¹
[5]
  product inhibition, Ki compared with Km: No product inhibition is observed

## O=C(/C=C/c1ccco1)N[C@@H](Cc1ccccc1)C(=O)N[C@@H](Cc1ccccc1)C(=O)O [FAPP, furyl-acryloyl-phe-phe]
[5]; 25.0° C.
  Km: 375 µM
  kcat: 4.58 s⁻¹
[5]
  product inhibition, Ki compared with Km: product inhibition is not observed

## N=C(N)NCCC[C@H](NC(=O)CNC(=O)c1ccccc1)C(=O)O [HA, hippuryl-arginine] (Bz-Gly-Arg-OH)
[5]
  hydrolysis by the protease: Remain Unaltered by the Enzyme
P. furiosus protease [2]; 25.0 °C
  hydrolysis by the enzyme: Remain Unaltered

## O=S(=O)(F)Cc1ccccc1 [PMSF, phenyl-methyl-sulfonyl fluoride]
P. furiosus protease [4]; 8×10^3 molar excess over enzyme, BAPNA substrate, 25.0 °C
  inhibition of enzyme activity: complete inhibition

## N=C(N)NCCC[C@H](NC(=O)[C@H](Cc1ccccc1)NC(=O)[C@H]1CCCN1)C(=O)Nc1ccc([N+](=O)[O-])cc1 [PPANA, D-pro-phe-arg-pNA] (H-[dP]-Phe-Arg-pNA)
P. furiosus protease [1]; 25.0 °C
  ΔH* (activation enthalpy): 26.1 kcal/mol
  ΔS* (activation entropy): 23.8 e.u
P. furiosus protease [1]; 80.0 °C
  ΔH* (activation enthalpy): 15.4 kcal/mol
  ΔS* (activation entropy): −9.0 e.u
[5]; 25.0° C.
  Km: 477 µM
  kcat: .045 s⁻¹
[5]; 80.0° C.
  Km: 499 µM
  kcat: 5.44 s⁻¹
[5]; kcat at 80° C. vs 25° C.
  kcat ratio 80° C./25° C.: 120 times

## O=C(O)CC[C@H](NC(=O)CNC(=O)OCc1ccccc1)C(=O)O [ZGE, Z-gly-glu] (Cbz-Gly-Glu-OH)
[6]
  pK1: 4.47

## CC(C)CC(NC(=O)CNC(=O)OCc1ccccc1)C(=O)O (centres unmarked) [ZGL, Z-gly-leu]
[6]
  pK1: 3.81

## O=C(CNC(=O)OCc1ccccc1)N[C@@H](Cc1ccccc1)C(=O)O [ZGP, carbobenzoxy-gly-phe] (Cbz-Gly-Phe-OH)
[5]
  hydrolysis by the protease: Remain Unaltered by the Enzyme
P. furiosus protease [2]; 25.0 °C
  hydrolysis by the enzyme: Remain Unaltered

## CC(NC(=O)C(Cc1ccccc1)NC(=O)OCc1ccccc1)C(=O)O (centres unmarked) [ZPA, carbobenzoxy-phe-ala]
P. furiosus protease [2]; 25.0 °C
  Ki compared with Km: Ki<Km
P. furiosus protease [2]; [9]
  Ki: 134 µM

## NC(=O)[C@@H](N)CCCN=C(N)N [arg-NH2]
[6]
  pK2: 7.51

## N=C(N)NCCC[C@H](N)C(=O)Nc1ccc([N+](=O)[O-])cc1 [arg-pNA]
[5]
  hydrolysis by the protease: does not hydrolyze arg-pNA at all, even at 80 °C
P. furiosus protease [2]; even at 80° C.
  hydrolysis by the protease (TLC): does not hydrolyze

## N=C(N)NCCC[C@H](NC(=O)c1ccccc1)C(=O)O [benzoyl-L-arginine]
P. furiosus protease [7]; initial rate measurements of BAPNA with varying product concentration, read-out: Ki (inhibition constant of added product)
  Ki: 65 µM
P. furiosus protease [2]; [9]
  Ki: 70.8 µM

## O=C(O)c1cc(SSc2ccc([N+](=O)[O-])c(C(=O)O)c2)ccc1[N+](=O)[O-] [bisdithiodintrobenzene]
P. furiosus protease [4]; [10]
  effect upon the activity of the enzyme: no effect whatsoever

## NC(=O)CI [iodoacetamide]
P. furiosus protease [4]; [10]
  effect upon the activity of the enzyme: no effect whatsoever

## CC(C)C[C@H](N)C(N)=O [leu-NH2]
[6]
  pK2: 7.93

## Nc1ccc([N+](=O)[O-])cc1 [p-nitroaniline]
P. furiosus protease [7]; concentrations as high as 5×10^−4 M, initial rates of BAPNA
  inhibition by added product: no detectable inhibition

## N=C(N)NCCC[C@H](NC(=O)[C@@H]1CCCN1C(=O)[C@H](N)Cc1ccccc1)C(=O)CCl [phe-pro-argCH2Cl]
P. furiosus protease [4]; inhibitor 1.98×10^−6 M, BAPNA 3.8×10^−4 M, 25.0 °C
  pseudo first order inactivation rate constant: 0.022 s⁻¹

## O=P(O)(O)O [sodium phosphate]
P. furiosus protease [4]; pH 7
  effect upon the activity of the enzyme: no effect whatsoever

## insulin B-chain: insulin B-chain, used as a substrate; its carboxy terminus is alanine
[8]
  ninhydrin-positive components by TLC: 5
